Experimental data from patent US4401660A, “Ester derivatives of 5-O-mycaminosyl tylonolide and method of using same” (Eli Lilly and Company, priority 1981, dated 1983).
Like-named read-outs stand apart in the source and are kept apart here.

How the values were obtained:
[1] = tested on: Pasteurella haemolytica 41D; assay: MIC, broth-dilution microtiter test (Table III); assay type: cell-based; design: unit not given here
Protocol: (§1) The MIC's in Table II were determined by standard agar-dilution assays. The MIC's in Table III were obtained using a conventional broth-dilution microtiter test.

[2] = tested on: Mycoplasma hyorhinis; assay: MIC, broth-dilution microtiter test (Table III); assay type: cell-based; design: unit not given here
Protocol: as §1

[3] = tested on: Pasteurella multocida 22A; assay: MIC, broth-dilution microtiter test (Table III); assay type: cell-based; design: unit not given here
Protocol: as §1

[4] = tested on: Pasteurella multocida 60A; assay: MIC, broth-dilution microtiter test (Table III); assay type: cell-based; design: unit not given here; details: avian isolate
Protocol: as §1

[5] = tested on: Pasteurella multocida 40G; assay: MIC, broth-dilution microtiter test (Table III); assay type: cell-based; design: unit not given here
Protocol: as §1

[6] = tested on: Mycoplasma synoviae; assay: MIC, broth-dilution microtiter test (Table III); assay type: cell-based; design: unit not given here
Protocol: as §1

[7] = tested on: Pasteurella haemolytica 22C; assay: MIC, broth-dilution microtiter test (Table III); assay type: cell-based; design: unit not given here
Protocol: as §1

[8] = tested on: Pasteurella multocida 17E; assay: MIC, broth-dilution microtiter test (Table III); assay type: cell-based; design: unit not given here; details: bovine isolate
Protocol: as §1

[9] = tested on: Streptococcus sp. 80; assay: MIC, broth-dilution microtiter test (Table III); assay type: cell-based; design: unit not given here
Protocol: as §1

[10] = tested on: Staphylococcus aureus; assay: MIC, broth-dilution microtiter test (Table III); assay type: cell-based; design: unit not given here
Protocol: as §1

[11] = tested on: Pasteurella haemolytica 23C; assay: MIC, broth-dilution microtiter test (Table III); assay type: cell-based; design: unit not given here
Protocol: as §1

[12] = tested on: Mycoplasma gallisepticum; assay: MIC, broth-dilution microtiter test (Table III); assay type: cell-based; design: unit not given here
Protocol: as §1

[13] = tested on: Pasteurella multocida 68C; assay: MIC, broth-dilution microtiter test (Table III); assay type: cell-based; design: unit not given here
Protocol: as §1

[14] = tested on: Staphylococcus aureus V41; assay: MIC, standard agar-dilution assay (Table II); assay type: cell-based; design: unit not given here; details: Staphylococcus aureus V41, penicillin-resistant strain
Protocol: as §1

[15] = tested on: Streptococcus pneumoniae Park I; assay: MIC, standard agar-dilution assay (Table II); assay type: cell-based; design: unit not given here
Protocol: as §1

[16] = tested on: Streptococcus Group D 9960; assay: MIC, standard agar-dilution assay (Table II); assay type: cell-based; design: unit not given here
Protocol: as §1

[17] = tested on: Haemophilus influenzae R252; assay: MIC, standard agar-dilution assay (Table II); assay type: cell-based; design: unit not given here; details: Haemophilus influenzae R252, ampicillin-resistant strain
Protocol: as §1

[18] = tested on: Haemophilus influenzae Holt; assay: MIC, standard agar-dilution assay (Table II); assay type: cell-based; design: unit not given here; details: ampicillin-sensitive strain
Protocol: as §1

[19] = tested on: Streptococcus pyogenes C203; assay: MIC, standard agar-dilution assay (Table II); assay type: cell-based; design: unit not given here
Protocol: as §1

[20] = tested on: Staphylococcus epidermidis EPI2; assay: MIC, standard agar-dilution assay (Table II); assay type: cell-based; design: unit not given here
Protocol: as §1

[21] = tested on: Staphylococcus aureus X1.1; assay: MIC, standard agar-dilution assay (Table II); assay type: cell-based; design: unit not given here
Protocol: as §1

[22] = tested on: Staphylococcus aureus X400; assay: MIC, standard agar-dilution assay (Table II); assay type: cell-based; design: unit not given here; details: Staphylococcus aureus X400, methicillin-resistant strain
Protocol: as §1

[23] = tested on: Staphylococcus aureus S13E; assay: MIC, standard agar-dilution assay (Table II); assay type: cell-based; design: unit not given here
Protocol: as §1

[24] = tested on: Staphylococcus epidermidis EPI1; assay: MIC, standard agar-dilution assay (Table II); assay type: cell-based; design: unit not given here
Protocol: as §1

[25] = tested on: Streptococcus Group D X66; assay: MIC, standard agar-dilution assay (Table II); assay type: cell-based; design: unit not given here
Protocol: as §1

[26] = tested on: Streptococcus pyogenes C203; assay: ED50 in mice with experimental infections (Table IV); assay type: in vivo; details: Streptococcus pyogenes, doses given 1 and 4 hours postinfection
Protocol: The OMT ester derivatives of this invention have shown in vivo antimicrobial activity against experimental bacterial infections caused by gram-positive bacteria. When two doses of test compound were administered to mice with experimental infections, the activity observed was measured as an ED50 value [effective dose in mg/kg to protect 50% of the test animals: see Warren Wick, et al., J. Bacteriol. 81, 233-235 (1961)].
^a mg/kg × 2; doses given 1 and 4 hours postinfection

[27] = C203, oral, read-out: ED50, Oral
[28] = C203, sc, subcutaneous, read-out: ED50, Subcutaneous

Row | Structure (SMILES) | minimal inhibitory concentration (MIC) [1] | minimal inhibitory concentration (MIC) [2] | minimal inhibitory concentration (MIC) [4] | minimal inhibitory concentration (MIC) [6] | minimal inhibitory concentration (MIC) [8] | minimal inhibitory concentration (MIC) [9] | minimal inhibitory concentration (MIC) [10] | minimal inhibitory concentration (MIC) [12] | minimal inhibitory concentration (MIC) [14] | minimal inhibitory concentration (MIC) [15] | minimal inhibitory concentration (MIC) [16] | minimal inhibitory concentration (MIC) [17] | minimal inhibitory concentration (MIC) [18] | minimal inhibitory concentration (MIC) [19] | minimal inhibitory concentration (MIC) [20] | minimal inhibitory concentration (MIC) [21] | minimal inhibitory concentration (MIC) [22] | minimal inhibitory concentration (MIC) [23] | minimal inhibitory concentration (MIC) [24] | minimal inhibitory concentration (MIC) [25] | also measured
1 | CCC(=O)OC1C(C)OC(OC2C(CC=O)CC(C)C(=O)C=CC(C)=CC(CO)C(CC)OC(=O)CC(O)C2C)C(OC(=O)CC)C1N(C)C (stereo not drawn) [Compound 4] | 12.5 | 1.56 | 3.12 | 0.78 | 3.12 | < 0.78 | 1.56 | 0.39 | 4 | 8 | 2 | 4 | 4 | 0.5 | 4 | 2 | 2 | 2 | 1 | 1 | minimal inhibitory concentration (MIC) [3]: 3.12; minimal inhibitory concentration (MIC) [5]: 6.25; minimal inhibitory concentration (MIC) [7]: 6.25; minimal inhibitory concentration (MIC) [11]: 6.25; minimal inhibitory concentration (MIC) [13]: 1.56; ED50 [26, 27]: 167 mg/kg; ED50 [26, 28]: 5.7 mg/kg
2 | CCC1OC(=O)CC(O)C(C)C(OC2OC(C)C(O)C(N(C)C)C2OC(=O)Cc2ccccc2)C(CC=O)CC(C)C(=O)C=CC(C)=CC1CO (stereo not drawn) [Compound 52, 2'-O-(Phenylacetyl)-OMT] | 6.25 | 3.12 | 1.56 | 1.56 | 3.12 | 0.78 | 1.56 | 3.12 | 1 | 0.06 | 1 | 0.5 | 2 | 0.25 | 2 | 0.5 | 2 | 1 | 0.5 | 0.5 | minimal inhibitory concentration (MIC) [3]: 3.12; minimal inhibitory concentration (MIC) [5]: 3.12; minimal inhibitory concentration (MIC) [7]: 25; minimal inhibitory concentration (MIC) [11]: 12.5; minimal inhibitory concentration (MIC) [13]: 6.25; ED50 [26, 27]: 92 mg/kg; ED50 [26, 28]: 2.1 mg/kg
3 | CCC1OC(=O)CC(O)C(C)C(OC2OC(C)C(O)C(N(C)C)C2OC(C)=O)C(CC=O)CC(C)C(=O)C=CC(C)=CC1COC(=O)Cc1cc(OC)ccc1OC (stereo not drawn) [Compound 62] | 3.12 | 0.78 | 12.5 | < 0.05 | 3.12 | 0.195 | 0.78 | < 0.05 | 0.25 | 0.03 | 0.125 | 2 | 1 | 0.06 | 0.25 | 0.25 | 0.25 | 0.125 | 0.125 | 0.125 | minimal inhibitory concentration (MIC) [3]: 3.12; minimal inhibitory concentration (MIC) [5]: 3.12; minimal inhibitory concentration (MIC) [7]: 6.25; minimal inhibitory concentration (MIC) [11]: 6.25; minimal inhibitory concentration (MIC) [13]: 6.25
4 | CCC(=O)OC1C(OC2C(CC=O)CC(C)C(=O)C=CC(C)=CC(COC(C)=O)C(CC)OC(=O)CC(O)C2C)OC(C)C(O)C1N(C)C (stereo not drawn) [Compound 11] |  | 12.5 | 50 | 0.39 | 25 | 1.56 | 6.25 | 0.39 | 1 | 0.25 | 1 | 4 | 4 | 0.5 | 0.5 | 0.5 | 1 | 0.5 | 0.5 | 1 | ED50 [26, 27]: > 150 mg/kg; ED50 [26, 28]: 5.3 mg/kg
5 | CCC1OC(=O)CC(O)C(C)C(OC2OC(C)C(O)C(N(C)C)C2O)C(CC=O)CC(C)C(=O)C=CC(C)=CC1COC(=O)CCCCc1ccccc1 (stereo not drawn) [Compound 61] | 6.25 | 6.25 | 3.12 | 1.56 | 6.25 | 1.56 | 1.56 | 0.78 | 0.25 | 0.06 | 0.25 | 2 | 2 | 0.25 | 0.25 | 0.25 | 0.25 | 0.25 | 0.25 | 0.25 | minimal inhibitory concentration (MIC) [3]: 6.25; minimal inhibitory concentration (MIC) [5]: 6.25; minimal inhibitory concentration (MIC) [7]: 12.5; minimal inhibitory concentration (MIC) [11]: 12.5; minimal inhibitory concentration (MIC) [13]: 6.25
6 | CCC1OC(=O)CC(O)C(C)C(OC2OC(C)C(O)C(N(C)C)C2O)C(CC=O)CC(C)C(=O)C=CC(C)=CC1COC(=O)c1ccc2ccccc2c1 (stereo not drawn) [Compound 59] | 12.5 | 6.25 | 3.12 | 1.56 | 3.12 | 0.39 | 0.78 | 0.39 | 0.5 | 0.125 | 0.5 | 2 | 4 | 0.5 | 0.5 | 0.5 | 0.5 | 0.5 | 0.5 | 0.5 | minimal inhibitory concentration (MIC) [3]: 12.5; minimal inhibitory concentration (MIC) [5]: 3.12; minimal inhibitory concentration (MIC) [7]: 12.5; minimal inhibitory concentration (MIC) [11]: 12.5; minimal inhibitory concentration (MIC) [13]: 3.12
